Laboratory results published in the supplement of paper PMC13380429.

How the values were obtained:
Conditions in all cases: 72 h
Vero E6 [1] = assay: cell viability relative to DMSO; higher = less toxic
U2OS [2] = assay: as above
HepG2 [3] = assay: as above
Caco-2 [4] = assay: as above
Calu-3 [5] = assay: as above
Vero E6 [6] = assay: relative viability EC50 (midpoint between 100% and the lowest measured viability); higher = less toxic
U2OS [7] = assay: as above
HepG2 [8] = assay: as above
Caco-2 [9] = assay: as above
Calu-3 [10] = assay: as above
Vero E6 [11] = assay: drug sensitivity score (DSS) for viability; higher = more toxic; extreme values may be limits of the assay
U2OS [12] = assay: as above
HepG2 [13] = assay: as above
Caco-2 [14] = assay: as above
Calu-3 [15] = assay: as above

| SMILES | cell viability (Vero E6 [1]; 1 nM) [%] | cell viability (Vero E6 [1]; 10 nM) [%] | cell viability (Vero E6 [1]; 100 nM) [%] | cell viability (Vero E6 [1]; 1000 nM) [%] | cell viability (Vero E6 [1]; 10000 nM) [%] | cell viability (U2OS [2]; 1 nM) [%] | cell viability (U2OS [2]; 10 nM) [%] | cell viability (U2OS [2]; 100 nM) [%] | cell viability (U2OS [2]; 1000 nM) [%] | cell viability (U2OS [2]; 10000 nM) [%] | cell viability (HepG2 [3]; 1 nM) [%] | cell viability (HepG2 [3]; 10 nM) [%] | cell viability (HepG2 [3]; 100 nM) [%] | cell viability (HepG2 [3]; 1000 nM) [%] | cell viability (HepG2 [3]; 10000 nM) [%] | cell viability (Caco-2 [4]; 1 nM) [%] | cell viability (Caco-2 [4]; 10 nM) [%] | cell viability (Caco-2 [4]; 100 nM) [%] | cell viability (Caco-2 [4]; 1000 nM) [%] | cell viability (Caco-2 [4]; 10000 nM) [%] | cell viability (Calu-3 [5]; 1 nM) [%] | cell viability (Calu-3 [5]; 10 nM) [%] | cell viability (Calu-3 [5]; 100 nM) [%] | cell viability (Calu-3 [5]; 1000 nM) [%] | cell viability (Calu-3 [5]; 10000 nM) [%] | relative viability EC50 (Vero E6 [6]) [µM] | relative viability EC50 (U2OS [7]) [µM] | relative viability EC50 (HepG2 [8]) [µM] | relative viability EC50 (Caco-2 [9]) [µM] | relative viability EC50 (Calu-3 [10]) [µM] | drug sensitivity score (Vero E6 [11]) | drug sensitivity score (U2OS [12]) | drug sensitivity score (HepG2 [13]) | drug sensitivity score (Caco-2 [14]) | drug sensitivity score (Calu-3 [15]) |
| --- | --- | --- | --- | --- | --- | --- | --- | --- | --- | --- | --- | --- | --- | --- | --- | --- | --- | --- | --- | --- | --- | --- | --- | --- | --- | --- | --- | --- | --- | --- | --- | --- | --- | --- | --- |
| NC(=O)OCC(COC(N)=O)c1ccccc1 [felbamate] | 87.8 | 89.8 | 99.6 | 90.3 | 104 | 97.8 | 102 | 97.6 | 107 | 104 | 96.5 | 94.7 | 102 | 106 | 98.5 | 92.9 | 97.2 | 95.9 | 99.1 | 97.1 | 91 | 95.8 | 91.5 | 123 | 98.1 | > 10 | > 10 | > 10 | > 10 | > 10 | 0 | 0 | 0 | 0 | 0 |
| CCN(CC)CCOCCOC(=O)C(CC)(CC)c1ccccc1 [oxelaidin] | 94.2 | 95.9 | 102 | 99.9 | 104 | 96.9 | 92.6 | 94.3 | 107 | 101 | 104 | 103 | 104 | 95.6 | 87.1 | 106 | 85.5 | 95.9 | 107 | 97.3 | 99 | 95.8 | 94.8 | 94.5 | 99.7 | > 10 | > 10 | > 10 | > 10 | > 10 | 0 | 0 | 0.3 | 0 | 0 |
| C[C@H](NC(=O)CNC(=O)c1cccc(Cl)c1)c1ccccc1 | 103 | 96.2 | 96.4 | 104 | 99.1 | 101 | 96.8 | 99.7 | 98.1 | 101 | 102 | 107 | 98.8 | 98.6 | 101 | 100 | 102 | 96.6 | 100 | 102 | 91.2 | 95.1 | 96.3 | 108 | 90.8 | > 10 | > 10 | > 10 | > 10 | > 10 | 0 | 0 | 0 | 0 | 0 |
